The record followed here is ChEMBL document CHEMBL1201862, “PubChem BioAssay data set” (2004).

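Grown in 96-well plates, cells were treated for 48 hours with each compound at five concentrations. Insufficient inhibition: endpoint recorded as highest concentration tested. GI50 is the concentration that inhibits growth by half.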 Active and inactive are the calls of the source. Rule as the data show it: active = GI50 up to about 1.1 µM and inactive = higher.

What all share (test): NCI tumour cell line growth inhibition, 48 h
Assay [1] relates to 786-0.
The subject of assay [2] is UO-31.
For assay [3], the system named is HOP-92.
For assay [4], the system named is SR.
The test system of assay [5] is IGROV-1.
Assay [6] deals with HCC 2998.
Assay [7] has as its system RXF 393.
Assay [8] deals with A549.
In assay [9] the test system is ACHN.
The test system of assay [10] is CCRF-CEM.
Assay [11] deals with NCI-H226.
Assay [12] concerns KM12.
In assay [13] the test system is SF-539.
The test system of assay [14] is NCI-H460.
Assay [15] relates to SK-MEL-28.
Assay [16] has as its system SK-OV-3.
Assay [17] has as its system M14.
For assay [18], the system named is UACC-257.
For assay [19], the system named is SK-MEL-5.
Assay [20] has as its system T47D.

For `Fc1ccc2c3c([nH]c2c1)CCNC3`, the GI50 in assay [1] was > 100 µM (inactive); in assay [2] it was 31.8 µM (inactive); in [3], 29.5 µM (inactive); in assay [4], > 100 µM (inactive); in assay [5], > 100 µM (inactive); in assay [6], 76 µM (inactive). In addition, the GI50 in assay [7] is > 100 µM (inactive); in assay [8], > 100 µM (inactive); in assay [9], 65.3 µM (inactive); in [10], > 100 µM (inactive); in assay [11], 59.6 µM (inactive); in [12], > 100 µM (inactive). Moreover, the GI50 in assay [13], in assay [14], in [15], in assay [16], in [17] and in [18] was > 100 µM (inactive) in each case. The GI50 in [19] and in assay [20] was > 100 µM (inactive) each time.

Consider `Oc1cc(Br)cc2cc(Br)cnc12`, for which the GI50 in assay [1] is 13.8 µM (inactive); in assay [2], 2.99 µM (inactive); in assay [3], 13.7 µM (inactive); in assay [4], 1.26 µM (inactive); in assay [5], 1.14 µM (inactive); in [6] it was 17.1 µM (inactive). Further, the GI50 in assay [7] is 1.6 µM (inactive); in [8] it was 3.29 µM (inactive); in assay [9], 1.48 µM (inactive); in [10], 1.83 µM (inactive); in assay [11], 15.3 µM (inactive); in assay [12], 5.38 µM (inactive). Further, the GI50 was 3.78 µM (inactive) in assay [13]; 1.3 µM (inactive) in assay [14]; 2.02 µM (inactive) in assay [15]; 39.2 µM (inactive) in [16]; 2.4 µM (inactive) in [17]; 3.21 µM (inactive) in [18]. Besides, the GI50 in [19] is 2.48 µM (inactive); in [20], 2.8 µM (inactive).

Turning to `O=C(c1ccccc1)c1ccc2nc3n(c2c1)C(c1c(F)cccc1F)SC3` (stereo not given), the GI50 was 4.2 µM (inactive) in assay [1]; 5.4 µM (inactive) in assay [2]; 10.9 µM (inactive) in assay [3]; 0.847 µM (active) in assay [4]; 5.05 µM (inactive) in assay [5]; 5.25 µM (inactive) in assay [6]. In addition, the GI50 in assay [7] was 13.2 µM (inactive); in [8], 4.79 µM (inactive); in [9], 3.85 µM (inactive); in [10], 4.76 µM (inactive); in [11], 30.6 µM (inactive); in [12] it was 2.82 µM (inactive). In addition, the GI50 was 10.3 µM (inactive) in assay [13]; 3.98 µM (inactive) in assay [14]; 22.3 µM (inactive) in [15]; 4.1 µM (inactive) in [16]; 3.46 µM (inactive) in assay [17]; 18.1 µM (inactive) in assay [18]. In addition, the values for the GI50 in assay [19] and in assay [20] were 4.08 µM (inactive) and 4.49 µM (inactive), respectively.
